The record followed here is patent US7119182B1 (The Regents of the University of California, priority 1991, dated 2006).

In one assay the target is T1, thrombin receptor (Homo sapiens, UniProt P25116).
T1 construct: In this assay, washed human platelets are prepared by the method of Baenzinger; endogenous in cells; host or cells: washed human platelets
T1 sequence (P25116 22-425): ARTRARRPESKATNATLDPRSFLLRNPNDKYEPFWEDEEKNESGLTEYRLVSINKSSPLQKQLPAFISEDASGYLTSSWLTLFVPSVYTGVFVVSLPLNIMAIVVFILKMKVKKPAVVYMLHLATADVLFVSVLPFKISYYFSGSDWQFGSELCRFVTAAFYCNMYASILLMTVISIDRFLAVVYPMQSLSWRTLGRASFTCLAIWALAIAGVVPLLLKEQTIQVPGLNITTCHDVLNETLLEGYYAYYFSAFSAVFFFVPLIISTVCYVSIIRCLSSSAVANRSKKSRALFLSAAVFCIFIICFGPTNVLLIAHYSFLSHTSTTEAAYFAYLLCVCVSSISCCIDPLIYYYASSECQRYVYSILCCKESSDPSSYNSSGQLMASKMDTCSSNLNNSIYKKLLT
The assay can be described thus: Platelet activation/aggregation assays in the presence of thrombin, antagonist peptides. The note with it: read-out: IC50 (50% inhibition of activation or aggregation). The class given is cell-based. The procedure:
Platelet Aggregation: In this assay, washed human platelets are prepared by the method of Baenzinger, M. G., Meth Enzymol (1974) 31:149–155, or as described by Charo, I. F., et al., J Clin Invest (1977) 63:866–873.
Washed platelets are suspended in modified Tyrode's buffer, pH 7.4 with 2 mM magnesium and 1 mM calcium at a concentration of 10^8 platelets/ml.
About 20 μl Chromolume® reagent (Chronolog Corporation, Havertown, Pa.) is added. In addition to measuring aggregation, ATP secretion is assessed. […] Platelet ATP secretion is measured in a lumiaggregometer as luminescence signal. […] Preincubation is not necessary for testing agonists or antagonists which interact directly with the receptor.
Platelet Aggregation Assay Using Microtiter Plates: Thrombin- or agonist-mediated platelet aggregation as measured with washed platelets in 96-well microtiter plates was performed as described (Fratantoni, J. C. et al., Am J Clin Pathol (1990) 94:613–617).

A further assay concerns the target T2, washed human platelets (Homo sapiens, UniProt P25116).
T2 sequence (P25116 42-425): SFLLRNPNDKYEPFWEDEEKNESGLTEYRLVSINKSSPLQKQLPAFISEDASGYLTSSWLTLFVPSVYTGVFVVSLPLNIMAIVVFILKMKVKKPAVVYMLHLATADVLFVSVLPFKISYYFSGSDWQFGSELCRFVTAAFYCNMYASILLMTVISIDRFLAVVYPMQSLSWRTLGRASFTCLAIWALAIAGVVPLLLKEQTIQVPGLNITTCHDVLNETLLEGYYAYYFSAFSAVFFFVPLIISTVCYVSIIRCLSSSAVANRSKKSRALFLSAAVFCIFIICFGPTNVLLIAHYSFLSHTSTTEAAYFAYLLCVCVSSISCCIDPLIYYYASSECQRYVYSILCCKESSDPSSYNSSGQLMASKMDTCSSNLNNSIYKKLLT
The note with it: washed human platelets; for EC50: read-out: EC50 (concentration required to elicit a 50% maximal aggregation).

A word on the IC50: it is the concentration needed to halve the response being measured.

Square brackets hold non-standard residues; d marks the D form. Ends that are not written are not given here. Peptide text beside a SMILES is read from it. * marks the point of attachment. 2Nal = N[C@@H](Cc1ccc2ccccc2c1)C(=O)O; 2Thi = N[C@@H](Cc1cccs1)C(=O)O; Cha = N[C@@H](CC1CCCCC1)C(=O)O; Phg = N[C@H](C(=O)O)c1ccccc1; Aib = CC(C)(N)C(=O)O; Piv = CC(C)(C)C(=O)*; X1 = O=C(c1ccccc1S)*; Mpa = O=C(O)CCS

Method for washed human platelets: Washed human platelets were prepared as described by Baenzinger, N. G., Meth Enz (1974) 31:149–155; and Charo, I. F., et al., J Clin Invest (1977) 63:866–873. Agonist-induced responses were assessed as described above.
Using the platelet aggregation assay described above, the concentration of various peptides required to elicit a 50% maximal aggregation was determined.

Consider `C[C@H](NC(=O)[C@H](CC(=O)O)NC(=O)[C@H](CC(N)=O)NC(=O)[C@@H]1CCCN1C(=O)[C@H](CCCCN)NC(=O)[C@H](CCCNC(=N)N)NC(=O)[C@H](CC1CCCCC1)NC(=O)[C@H](CC1CCCCC1)NC(=O)[C@H](Cc1ccccc1)NC(=O)CCS)C(N)=O` [Mpr-F(Cha) (Cha)RKPNDA-NH2] ([Mpa]F[Cha][Cha]RKPNDA-NH2), for which, at thrombin receptor, the IC50 was found to be 50 µM.
With SFLLRNPNDYKE, at washed human platelets, the “EC50 (concentration required to elicit a 50% maximal aggregation)” value was “Inactive”.
Turning to `C[C@H](NC(=O)[C@@H]1CCCN1C(=O)[C@H](CC(N)=O)NC(=O)[C@H](CCCNC(=N)N)NC(=O)[C@H](CC1CCCCC1)NC(=O)[C@H](CC1CCCCC1)NC(=O)[C@H](Cc1ccccc1)NC(=O)CCS)C(=O)N[C@@H](CC(=O)O)C(=O)N[C@@H](CCCCN)C(N)=O` [Mpr-F(Cha) (Cha)RNPADK-NH2] ([Mpa]F[Cha][Cha]RNPADK-NH2), on thrombin receptor, the IC50 is 75 µM.
Turning to “SF(D-Ala)LR-NH2 (SF[dA]LR-NH2; N-terminus assumed; SMILES CC(C)C[C@H](NC(=O)[C@@H](C)NC(=O)[C@H](Cc1ccccc1)NC(=O)[C@@H](N)CO)C(=O)N[C@@H](CCCNC(=N)N)C(N)=O)”, the “EC50 (concentration required to elicit a 50% maximal aggregation)” value with washed human platelets is listed as “Inactive”.
With `C[C@H](NC(=O)[C@H](CC(=O)O)NC(=O)[C@H](CC(N)=O)NC(=O)[C@@H]1CCCN1C(=O)[C@H](CC(N)=O)NC(=O)[C@H](CCCNC(=N)N)NC(=O)[C@H](CC1CCCCC1)NC(=O)[C@H](CC1CCCCC1)NC(=O)[C@H](Cc1ccccc1)NC(=O)CCS)C(N)=O` [Mpr-F(Cha) (Cha)RNPNDA-NH2] ([Mpa]F[Cha][Cha]RNPNDA-NH2), the IC50 at thrombin receptor was determined as 50 µM.
Same read-out and setting: the same measure for `N=C(N)NCCC[C@H](NC(=O)[C@H](CC1CCCCC1)NC(=O)[C@H](CC1CCCCC1)NC(=O)[C@H](Cc1ccccc1)NC(=O)CCS)C(=O)N[C@@H](CC(N)=O)C(=O)N1CCC[C@H]1C(=O)N[C@@H](CC(N)=O)C(=O)N[C@@H](CC(=O)O)C(=O)N[C@@H](CCCCN)C(=O)N[C@@H](Cc1ccc(O)cc1)C(N)=O` [Mpr-F(Cha) (Cha)RNPNDKY-NH2] ([Mpa]F[Cha][Cha]RNPNDKY-NH2): 75 µM.
Turning to SFLPR [SFLPR-NH2], the “EC50 (concentration required to elicit a 50% maximal aggregation)” value at washed human platelets is “Inactive”.
Consider SFLLRNPN, for which the EC50 at washed human platelets turned out to be 7.6 µM.
With SLLLR [SLLLR-NH2], the “EC50 (concentration required to elicit a 50% maximal aggregation)” value at washed human platelets is “Inactive”.
SFLARNPNDKYE: on washed human platelets, the “EC50 (concentration required to elicit a 50% maximal aggregation)” value is recorded as “Inactive”.
For `CSCCC(=O)N[C@@H](Cc1ccccc1)C(=O)N[C@@H](CC1CCCCC1)C(=O)N[C@@H](CC1CCCCC1)C(=O)N[C@@H](CCCNC(=N)N)C(=O)N[C@@H](CCCCN)C(=O)N1CCC[C@H]1C(=O)N[C@@H](CC(N)=O)C(=O)N[C@@H](CC(=O)O)C(=O)N[C@@H](CCCCN)C(N)=O` [(SMeMpr)-F(Cha)(Cha)RKPNDK-NH2] ([Mpa](Me)F[Cha][Cha]RKPNDK-NH2), at thrombin receptor, the half-maximal inhibitory concentration (IC50) was 10 µM.
The same measure, in the same setting: the same measure for `C[C@H](NC(=O)[C@H](CCCNC(=N)N)NC(=O)[C@H](CC1CCCCC1)NC(=O)[C@H](CC1CCCCC1)NC(=O)[C@H](Cc1ccccc1)NC(=O)CCS)C(=O)N1CCC[C@H]1C(=O)N[C@@H](CC(N)=O)C(=O)N[C@@H](CC(=O)O)C(=O)N[C@@H](CCCCN)C(N)=O` [Mpr-F(Cha) (Cha)RAPNDK-NH2] ([Mpa]F[Cha][Cha]RAPNDK-NH2): 40 µM.
Regarding `N=C(N)NCCC[C@H](NC(=O)[C@H](CC1CCCCC1)NC(=O)[C@H](CC1CCCCC1)NC(=O)[C@H](Cc1ccccc1)NC(=O)CCS)C(=O)N[C@@H](Cc1ccccc1)C(=O)N1CCC[C@H]1C(=O)N[C@@H](CC(N)=O)C(=O)N[C@@H](CC(=O)O)C(=O)N[C@@H](CCCCN)C(N)=O` [Mpr-F(Cha) (Cha)RFPNDK-NH2] ([Mpa]F[Cha][Cha]RFPNDK-NH2), the IC50 at thrombin receptor is above 100 µM.
In the case of SFFLRN-NH2 [SFFLRN-NH2], the EC50 on washed human platelets worked out at 1.5 µM.
Turning to SFLER [SFLER-NH2], the “EC50 (concentration required to elicit a 50% maximal aggregation)” value on washed human platelets is recorded as “Inactive”.
For the molecule `CC(C)C[C@H](NC(=O)[C@H](CC(C)C)NC(=O)[C@H](Cc1ccccc1)NC(=O)C(C)(C)C)C(=O)N[C@@H](CCCNC(=N)N)C(N)=O` [Pivaloyl-FLLR-NH2] (Piv-FLLR-NH2), the half-inhibitory concentration (IC50) on thrombin receptor stood at 1000 µM.
Turning to DFLLR [DFLLR-NH2], the “EC50 (concentration required to elicit a 50% maximal aggregation)” value at washed human platelets is “Inactive”.
As for `CC(C)C[C@H](NC(=O)[C@H](CC(C)C)N(C)C(=O)[C@H](Cc1ccccc1)NC(=O)[C@@H](N)CO)C(=O)N[C@@H](CCCN=C(N)N)C(N)=O` [SF(N-MeLeu)LR-NH2], the EC50 on washed human platelets was above 1000 µM.
For `N=C(N)NCCC[C@H](NC(=O)[C@H](CC1CCCCC1)NC(=O)[C@H](CC1CCCCC1)NC(=O)[C@H](Cc1ccccc1)NC(=O)CCS)C(=O)N[C@@H](CC(N)=O)C(=O)N1CCC[C@H]1C(=O)N[C@@H](CC(N)=O)C(=O)N[C@@H](CC(=O)O)C(=O)N[C@@H](CCCCN)C(=O)N[C@@H](Cc1ccc(O)cc1)C(=O)N[C@@H](CCC(=O)O)C(N)=O` ([Mpa]F[Cha][Cha]RNPNDKYE-NH2), on thrombin receptor, the IC50 stood at 80 µM.
Still for that read-out and setting: the same measure for `N=C(N)NCCC[C@H](NC(=O)[C@H](CC1CCCCC1)NC(=O)[C@H](CC1CCCCC1)NC(=O)[C@H](Cc1ccccc1)NC(=O)c1ccccc1S)C(=O)N[C@@H](CCCCN)C(=O)N1CCC[C@H]1C(=O)N[C@@H](CC(N)=O)C(=O)N[C@@H](CC(=O)O)C(=O)N[C@@H](CCCCN)C(N)=O` [(2-Mba)-F(Cha)(Cha)RKPNDK-NH2] (X1-F[Cha][Cha]RKPNDK-NH2): 50 µM.
As for FLLRNPNDKYEPF, on washed human platelets, the “EC50 (concentration required to elicit a 50% maximal aggregation)” value is reported as “Inactive”.
As for `CC(C)C[C@H](NC(=O)[C@H](CC(C)C)NC(=O)[C@H](Cc1ccccc1)NC(=O)[C@@H](N)CO)C(=O)N[C@@H](CCCN=C(N)N)C(N)=O` [SFLLR-NH2], the EC50 at washed human platelets was 7.5 µM.
With SFDLR [SFDLR-NH2], the “EC50 (concentration required to elicit a 50% maximal aggregation)” value on washed human platelets is “Inactive”.
Regarding “SF(Aib)LRN-NH2 (SF[Aib]LRN-NH2; N-terminus assumed; SMILES CC(C)C[C@H](NC(=O)C(C)(C)NC(=O)[C@H](Cc1ccccc1)NC(=O)[C@@H](N)CO)C(=O)N[C@@H](CCCNC(=N)N)C(=O)N[C@@H](CC(N)=O)C(N)=O)”, the “EC50 (concentration required to elicit a 50% maximal aggregation)” value with washed human platelets is “Inactive”.
On the same count and under the same terms, the same measure for FFLLR [FFLLR-NH2]: “Inactive”; for SFLLDN [SFLLDN-NH2]: “Inactive”.
Consider `CC(C)C[C@H](NC(=O)[C@H](Cc1ccccc1)NC(=O)[C@@H](N)CO)C(=O)N[C@@H](Cc1ccc2ccccc2c1)C(=O)N[C@@H](CCCNC(=N)N)C(=O)N[C@@H](CC(N)=O)C(N)=O` [SFL(Nal)RN-NH2] (H-SFL[2Nal]RN-NH2), for which, at washed human platelets, the EC50 was found to be 7.5 µM.
Turning to SALLRNPNDKYE, the “EC50 (concentration required to elicit a 50% maximal aggregation)” value on washed human platelets is recorded as “Inactive”.
Still for that read-out and setting: the same measure for “S(Phg)LLR-NH2 (S[Phg]LLR-NH2; N-terminus assumed; SMILES CC(C)C[C@H](NC(=O)[C@H](CC(C)C)NC(=O)[C@@H](NC(=O)[C@@H](N)CO)c1ccccc1)C(=O)N[C@@H](CCCNC(=N)N)C(N)=O)”: “Inactive”.
`CC(C)C[C@H](NC(=O)[C@H](CC1CCCCC1)NC(=O)[C@H](Cc1ccccc1)NC(=O)[C@@H](N)CO)C(=O)N[C@@H](CCCNC(=N)N)C(N)=O` [SF(Cha)LR-NH2] (H-SF[Cha]LR-NH2): the EC50 on washed human platelets was determined as 1.5 µM.
On to KFLLR [KFLLR-NH2], for which, at washed human platelets, the “EC50 (concentration required to elicit a 50% maximal aggregation)” value is on record as “Inactive”.
Same read-out and setting: the same measure for “SF(b-Ala)LRN-NH2 (SFXLRN; beta-Ala at position 3; C-terminal amide)”: “Inactive”.
On to `CC(C)C[C@H](NC(=O)[C@H](CC(C)C)NC(=O)[C@H](Cc1ccccc1)NC(=O)[C@@H](N)CO)C(N)=O` [SFLL-NH2] (H-SFLL-NH2), for which the EC50 at washed human platelets came to 146 µM.
As to `CC(C)C[C@H](NC(=O)[C@H](CC(C)C)NC(=O)[C@H](Cc1cccs1)NC(=O)[C@@H](N)CO)C(=O)N[C@@H](CCCNC(=N)N)C(N)=O` [S(Thi)LLR-NH2] (H-S[2Thi]LLR-NH2), the EC50 at washed human platelets was found to be 7.6 µM.
Same read-out and setting: the same measure for SFLAR-NH2 [SFLAR-NH2]: 146 µM.
